The subject of assay [1] is Adenosylhomocysteinase (Bos taurus).
The target in assay [2] is Adenosylhomocysteinase (Homo sapiens) (UniProt P23526). The conditions noted are these: Bos taurus.
The test system of assay [3] is Adenosylhomocysteinase (Bos taurus). The experiment in a line: Kinetic constant against bovine liver S-adenosyl-L-homocysteine hydrolase (AdoHcy); c = Inactive up to 100 uM.
Assay [4] shares this test system. The assay is described as follows: Inhibitory activity against bovine liver S-adenosyl-L-homocysteine hydrolase (AdoHcy); c = Inactive up to 100 uM.
The target of assay [5] is Adenosylhomocysteinase (Homo sapiens) (UniProt P23526). The conditions noted are these: Bos taurus. The source holds these as a separate data set.
Description: Kinetic constant against bovine liver S-adenosyl-L-homocysteine hydrolase (AdoHcy); reversibleinhibitor

Calls of active or inactive are those of the source. No cut-off for these calls is given here.

Drawing on ChEMBL document CHEMBL1126037, “4'-modified analogues of aristeromycin and neplanocin A: synthesis and inhibitory activity toward S-adenosyl-L-homocysteine hydrolase” (J Med Chem, 1992), this text covers k2 and Ki for eleven molecules.

Chain of Adenosylhomocysteinase (Homo sapiens) (P23526 2-432 limits assumed): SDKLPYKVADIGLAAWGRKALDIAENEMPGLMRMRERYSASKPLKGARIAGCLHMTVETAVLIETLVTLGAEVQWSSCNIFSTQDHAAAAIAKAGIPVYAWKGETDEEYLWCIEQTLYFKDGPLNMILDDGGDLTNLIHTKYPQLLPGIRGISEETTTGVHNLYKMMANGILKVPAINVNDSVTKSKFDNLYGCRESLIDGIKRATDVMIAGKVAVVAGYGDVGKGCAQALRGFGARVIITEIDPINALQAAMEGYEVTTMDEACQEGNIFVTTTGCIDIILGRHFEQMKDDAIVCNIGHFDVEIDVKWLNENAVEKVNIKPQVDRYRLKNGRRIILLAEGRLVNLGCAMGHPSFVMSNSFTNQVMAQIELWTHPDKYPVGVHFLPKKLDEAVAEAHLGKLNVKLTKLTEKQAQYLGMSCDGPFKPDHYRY

Regarding `Nc1ncnc2c1ncn2[C@@H]1CC[C@@H](O)[C@H]1O`, the k2 in assay [1] was found to be 0.109 min⁻¹. The same measure, in the same setting: as for `C[C@@H]1C[C@@H](n2cnc3c(N)ncnc32)[C@H](O)[C@@H]1O`, the figure is 0.025 min⁻¹; as for `CC[C@H]1C[C@@H](n2cnc3c(N)ncnc32)[C@H](O)[C@@H]1O`, 0.083 min⁻¹; as for `Nc1ncnc2c1ncn2[C@@H]1C[C@H](c2ccccc2)[C@@H](O)[C@H]1O`, 0.01 min⁻¹. On the same count and under the same terms, for `Nc1ncnc2c1ncn2[C@@H]1C=C[C@@H](O)[C@H]1O` the value was 0.043 min⁻¹; for `C[C@H]1C[C@@H](n2cnc3c(N)ncnc32)[C@H](O)[C@@H]1O`, 0.039 min⁻¹. As for `Nc1ncnc2c1ncn2[C@@H]1C=C(CO)[C@@H](O)[C@H]1O`, the k2 in assay [2] is 1.98 min⁻¹. In assay [1], `CC1=C[C@@H](n2cnc3c(N)ncnc32)[C@H](O)[C@@H]1O` gave a k2 of 0.09 min⁻¹.

On to `CCC1=C[C@@H](n2cnc3c(N)ncnc32)[C@H](O)[C@@H]1O`, for which, in assay [3], the k2 result is “inactive”. Moreover, the Ki result in assay [4] is “Inactive”. With `Nc1ncnc2c1ncn2[C@@H]1C[C@H](CO)[C@@H](O)[C@H]1O`, the k2 entry in assay [5] is on record as “Reversible inhibition”. Consider `C=C[C@H]1C[C@@H](n2cnc3c(N)ncnc32)[C@H](O)[C@@H]1O`, for which the k2 in assay [1] stood at 0.053 min⁻¹.
